Reference: paper PMC7433010, “Exploration of multi‐target effects of 3‐benzoyl‐5‐hydroxychromen‐2‐one in Alzheimer’s disease cell and mouse models” (Aging Cell, 2020)

Key:
CREB [1] = assay: Western blot of CREB in ∆K280 TauRD‐DsRed SH‐SY5Y cells; type: cell-based, human; conditions: 1 µM; induced untreated 82%, uninduced 100%
Description: To knock down CREB expression in ∆K280 TauRD-DsRed SH-SY5Y cells, lentiviral short hairpin RNA (shRNA) targeting CREB (TRCN0000226466), NRF2 (TRCN0000007558), and a negative control scrambled (TRC2.Void) were obtained from National RNAi Core Facility, IMB/GRC, Academia Sinica, Taipei, Taiwan. On day 1, cells were plated on 6-well plates (for protein analysis) or 24-well plates (for neurite outgrowth analysis) in the presence of retinoic acid as described. On the second day, the cells were infected with lentivirus (multiplicity of infection: 3) in medium with polybrene (8 µg/mL; Sigma-Aldrich). […] On day 9, the cells were collected for NRF2, CREB, pCREB, and cleaved CASP3 protein analysis or analyzed for neurite outgrowth as described.
Total proteins from ∆K280 TauRD-DsRed SH-SY5Y cells were obtained using a RIPA buffer containing 50 mM Tris-HCl (pH8.0), 150 mM NaCl, 2 mM EDTA (pH8.0), 50 mM NaF, 0.1% SDS, 0.5% sodium deoxycholate, 1% NP40, and a protease inhibitor cocktail (Sigma-Aldrich). […] Protein concentrations were determined using a protein assay kit (Bio-Rad, Hercules, CA, USA), with albumin as a standard. […] Subsequently, immune complexes were detected using a horseradish peroxidase-conjugated goat anti-mouse or goat anti-rabbit IgG antibody (1:5000; GeneTex, Irvive, CA, USA) and a chemiluminescent substrate (Millipore).

pAKT (S473) = assay: Western blot of pAKT (S473) in ∆K280 TauRD‐DsRed SH‐SY5Y cells; type: cell-based, human; conditions: induced untreated 84%, uninduced 100%
Description: (§1) Total proteins from ∆K280 TauRD-DsRed SH-SY5Y cells were obtained using a RIPA buffer containing 50 mM Tris-HCl (pH8.0), 150 mM NaCl, 2 mM EDTA (pH8.0), 50 mM NaF, 0.1% SDS, 0.5% sodium deoxycholate, 1% NP40, and a protease inhibitor cocktail (Sigma-Aldrich). After sonication and sitting on ice for 20 min, the lysates were centrifuged at 14,000 × g for 30 min at 4°C. Protein concentrations were determined using a protein assay kit (Bio-Rad, Hercules, CA, USA), with albumin as a standard. Total proteins (20 µg) were electrophoresed on 10% or 12% SDS-polyacrylamide gel and transferred onto polyvinylidene difluoride (PVDF) membranes (Sigma-Aldrich) through reverse electrophoresis. […] Subsequently, immune complexes were detected using a horseradish peroxidase-conjugated goat anti-mouse or goat anti-rabbit IgG antibody (1:5000; GeneTex, Irvive, CA, USA) and a chemiluminescent substrate (Millipore).
(§2) Figure S4. ΔK280 TauRD-DsRed SH-SY5Y cells. […] On day 9, neurite outgrowth and caspase 3 activity were measured. In addition, expression of HSPB1, NRF2, and CREB pathways were assessed. (b) Relative AKT, pAKT, ERK, and pERK protein levels analyzed through immunoblotting. […]

pERK1/2 (T202/Y204) = assay: Western blot of pERK1/2 (T202/Y204) in ∆K280 TauRD‐DsRed SH‐SY5Y cells; type: cell-based, human; conditions: induced untreated 90%, uninduced 100%
Description: as §1, §2

CREB [2] = assay: Western blot of CREB in hippocampus of STZ‐treated 3 × Tg‐AD mice; type: in vivo, mouse; conditions: among the three groups
Description: In addition, isolated hippocampal and cortex tissues from transgenic mice (as described in Animal studies) were homogenized and extracted proteins (10 µg) were separated and blotted. After being blocked, the membranes were probed with antibody against mouse NRF2 (1:500; Sigma-Aldrich), CREB (1:500; Millipore), pCREB (S133) (1:1000; Millipore), or GAPDH (1:1000; MDBio), and the immune complexes detected as described above.
Mice harboring APPSwe, PS1M146V, and […] transgenes (3×Tg-AD) (Oddo et al., 2003) were purchased from the Jackson Laboratory (004807; Bar Harbor, ME, USA). Six-month-old male homozygous 3×Tg-AD mice were group housed at 20–25°C and 60% relative humidity under a daily 12-h light/12-h dark cycle, with assess to food and water ad libitum. Mice were randomly divided into 3 groups: – streptozocin (STZ), STZ, and STZ/LM-031 (n = 10 per group). STZ-induced hyperglycemia was used to accelerate the development of AD phenotype (Chen et al., 2014). Briefly, the mice were fasted for 12 h each day prior to intraperitoneal (i.p.) injection of STZ ([…]; Sigma-Aldrich) or vehicle (0.1 M sodium citrate pH4.5) for 4 times (days 2, 3, 9, and 10) (Chen et al., 2019). Mouse body weight was measured and blood glucose level was measured on days 1, 8, 15, 22, and 29 using a blood glucose meter (Bioland Technology, Taipei, Taiwan). […]

O=C(c1ccccc1)c1cc2c(O)cccc2oc1=O [LM‐031, 3‐benzoyl‐5‐hydroxychromen‐2‐one]
CREB protein level (CREB [1]): 122% | pAKT (S473) expression level (pAKT (S473)): 113% | pERK1/2 (T202/Y204) expression level (pERK1/2 (T202/Y204)): 117% | relative total CREB level in hippocampus (CREB [2]): not significantly different
